Data from ChEMBL document CHEMBL4359915, “Design, synthesis and biological evaluation of novel diazaspiro[4.5]decan-1-one derivatives as potential chitin synthase inhibitors and antifungal agents” (Eur J Med Chem, 2019).
Converted amounts (≈) assume the structure as drawn.

How the values were obtained:
Staphylococcus aureus [1] = test: Antibacterial activity against methicillin-resistant Staphylococcus aureus N315 assessed as growth inhibition measured after 24 hrs by two-fold broth dilution method; assay type: functional; conditions: N315, 24 h
Escherichia coli = test: Antibacterial activity against Escherichia coli JM 109 assessed as growth inhibition measured after 24 hrs by two-fold broth dilution method; assay type: functional; conditions: JM 109, 24 h
Bacillus spizizenii = test: Antibacterial activity against Bacillus subtilis ATCC 6633 assessed as growth inhibition measured after 24 hrs by two-fold broth dilution method; assay type: functional; conditions: ATCC 6633, 24 h
Pseudomonas aeruginosa = test: Antibacterial activity against Pseudomonas aeruginosa ATCC 9027 assessed as growth inhibition measured after 24 hrs by two-fold broth dilution method; assay type: functional; conditions: ATCC 9027, 24 h
Staphylococcus aureus [2] = test: Antibacterial activity against Staphylococcus aureus ATCC 25923 assessed as growth inhibition measured after 24 hrs by two-fold broth dilution method; assay type: functional; conditions: ATCC 25923, 24 h
Proteus vulgaris = test: Antibacterial activity against Bacillus proteus ATCC 8427 assessed as growth inhibition measured after 24 hrs by two-fold broth dilution method; assay type: functional; conditions: ATCC 8427, 24 h
Candida albicans [3] = test: Antifungal activity against Candida albicans ATCC 90023 assessed as growth inhibition measured after 24 hrs by two-fold broth dilution method; assay type: functional; conditions: ATCC 90023, 24 h
Candida tropicalis = test: Inhibition of Candida tropicalis ATCC 750 chitin synthase at 300 ug/ml using UDP-GlcNAc as substrate relative to control
Candida albicans [4] = test: Antifungal activity against Candida albicans ATCC 76615 assessed as growth inhibition measured after 24 hrs by two-fold broth dilution method; assay type: functional; conditions: ATCC 76615, 24 h
Cryptococcus neoformans = test: Antifungal activity against Cryptococcus neoformans ATCC 32719 assessed as growth inhibition measured after 24 hrs by two-fold broth dilution method; assay type: functional; conditions: ATCC 32719, 24 h
Aspergillus flavus = test: Antifungal activity against Aspergillus flavus ATCC 16870 assessed as growth inhibition measured after 24 hrs by two-fold broth dilution method; assay type: functional; conditions: ATCC 16870, 24 h
Aspergillus fumigatus = test: Antifungal activity against Aspergillus fumigatus GIMCC 3.19 assessed as growth inhibition measured after 24 hrs by two-fold broth dilution method; assay type: functional; conditions: GIMCC 3.19, 24 h
[5] = Inhibition of Candida tropicalis ATCC 750 chitin synthase using UDP-GlcNAc as substrate

SMILES	MIC (Staphylococcus aureus [1]) [µM]	MIC (Escherichia coli) [µM]	MIC (Bacillus spizizenii) [µM]	MIC (Pseudomonas aeruginosa) [µM]	MIC (Staphylococcus aureus [2]) [µM]	MIC (Proteus vulgaris) [µM]	MIC (Candida albicans [3]) [µM]	inhibition (Candida tropicalis) [%]	MIC (Candida albicans [4]) [µM]	MIC (Cryptococcus neoformans) [µM]	MIC (Aspergillus flavus) [µM]	MIC (Aspergillus fumigatus) [µM]	IC50 [5] [µM]
C[C@H]1COc2c(N3CCN(C)CC3)c(F)cc3c(=O)c(C(=O)O)cn1c23 [LEVOFLOXACIN]	11 (≈ 3.98 µg/mL)	11 (≈ 3.98 µg/mL)	11 (≈ 3.98 µg/mL)	3 (≈ 1.08 µg/mL)	22 (≈ 7.95 µg/mL)	5 (≈ 1.81 µg/mL)							
O=C(Nc1cccc(C(F)(F)F)c1)[C@H](O)[C@@H](O)C(=O)N1CCC2(CCNC2=O)CC1	300 (≈ 129 µg/mL)	150 (≈ 64.4 µg/mL)	150 (≈ 64.4 µg/mL)	300 (≈ 129 µg/mL)	300 (≈ 129 µg/mL)	150 (≈ 64.4 µg/mL)	300 (≈ 129 µg/mL)	47.1	300 (≈ 129 µg/mL)	70 (≈ 30.1 µg/mL)	60 (≈ 25.8 µg/mL)	600 (≈ 258 µg/mL)	
NC(=O)OC[C@H](O)[C@@H](O)[C@H](N)C(=O)N[C@H](C(=O)O)[C@H]1O[C@@H](n2cc(CO)c(=O)[nH]c2=O)[C@H](O)[C@@H]1O [POLYOXIN B]							129 (≈ 65.5 µg/mL)	85	32 (≈ 16.2 µg/mL)	64 (≈ 32.5 µg/mL)	32 (≈ 16.2 µg/mL)	32 (≈ 16.2 µg/mL)	80
O=C(Nc1ccc(Br)cc1)[C@H](O)[C@@H](O)C(=O)N1CCC2(CCNC2=O)CC1	1160 (≈ 511 µg/mL)	1160 (≈ 511 µg/mL)	580 (≈ 255 µg/mL)	290 (≈ 128 µg/mL)	580 (≈ 255 µg/mL)	1160 (≈ 511 µg/mL)	290 (≈ 128 µg/mL)	74.7	290 (≈ 128 µg/mL)	1160 (≈ 511 µg/mL)	150 (≈ 66 µg/mL)	1160 (≈ 511 µg/mL)	180
O=C(Nc1ccccc1)[C@H](O)[C@@H](O)C(=O)N1CCC2(CCNC2=O)CC1	710 (≈ 257 µg/mL)	710 (≈ 257 µg/mL)	710 (≈ 257 µg/mL)	710 (≈ 257 µg/mL)	1420 (≈ 513 µg/mL)	1420 (≈ 513 µg/mL)	710 (≈ 257 µg/mL)	1.8	710 (≈ 257 µg/mL)	710 (≈ 257 µg/mL)	1420 (≈ 513 µg/mL)	1420 (≈ 513 µg/mL)	
COc1ccccc1NC(=O)[C@H](O)[C@@H](O)C(=O)N1CCC2(CCNC2=O)CC1	330 (≈ 129 µg/mL)	650 (≈ 254 µg/mL)	650 (≈ 254 µg/mL)	650 (≈ 254 µg/mL)	1310 (≈ 513 µg/mL)	330 (≈ 129 µg/mL)	40 (≈ 15.7 µg/mL)	20.4	650 (≈ 254 µg/mL)	330 (≈ 129 µg/mL)	650 (≈ 254 µg/mL)	330 (≈ 129 µg/mL)	
OC(Cn1cncn1)(Cn1cncn1)c1ccc(F)cc1F [FLUCONAZOLE]							104 (≈ 31.9 µg/mL)		52 (≈ 15.9 µg/mL)	52 (≈ 15.9 µg/mL)	209 (≈ 64 µg/mL)	104 (≈ 31.9 µg/mL)	
COc1cccc(NC(=O)[C@H](O)[C@@H](O)C(=O)N2CCC3(CCNC3=O)CC2)c1	650 (≈ 254 µg/mL)	650 (≈ 254 µg/mL)	330 (≈ 129 µg/mL)	650 (≈ 254 µg/mL)	650 (≈ 254 µg/mL)	650 (≈ 254 µg/mL)	650 (≈ 254 µg/mL)	47.5	160 (≈ 62.6 µg/mL)	330 (≈ 129 µg/mL)	650 (≈ 254 µg/mL)	330 (≈ 129 µg/mL)	
CN[C@@H]1[C@H](O[C@H]2[C@H](O[C@H]3[C@H](O)[C@@H](O)[C@H](N=C(N)N)[C@@H](O)[C@@H]3N=C(N)N)O[C@@H](C)[C@]2(O)C=O)O[C@@H](CO)[C@H](O)[C@H]1O [STREPTOMYCIN]	55 (≈ 32 µg/mL)	14 (≈ 8.14 µg/mL)	28 (≈ 16.3 µg/mL)	7 (≈ 4.07 µg/mL)	28 (≈ 16.3 µg/mL)	14 (≈ 8.14 µg/mL)							
Cc1ccccc1NC(=O)[C@H](O)[C@@H](O)C(=O)N1CCC2(CCNC2=O)CC1	680 (≈ 255 µg/mL)	680 (≈ 255 µg/mL)	340 (≈ 128 µg/mL)	340 (≈ 128 µg/mL)	680 (≈ 255 µg/mL)	680 (≈ 255 µg/mL)	170 (≈ 63.8 µg/mL)	49.8	1360 (≈ 511 µg/mL)	680 (≈ 255 µg/mL)	1360 (≈ 511 µg/mL)	340 (≈ 128 µg/mL)	
O=C(Nc1ccc(F)c(F)c1)[C@H](O)[C@@H](O)C(=O)N1CCC2(CCNC2=O)CC1	1290 (≈ 513 µg/mL)	640 (≈ 254 µg/mL)	640 (≈ 254 µg/mL)	320 (≈ 127 µg/mL)	640 (≈ 254 µg/mL)	640 (≈ 254 µg/mL)	320 (≈ 127 µg/mL)	36.7	640 (≈ 254 µg/mL)	80 (≈ 31.8 µg/mL)	320 (≈ 127 µg/mL)	1290 (≈ 513 µg/mL)	
O=C(Nc1ccc(F)cc1)[C@H](O)[C@@H](O)C(=O)N1CCC2(CCNC2=O)CC1	340 (≈ 129 µg/mL)	670 (≈ 254 µg/mL)	340 (≈ 129 µg/mL)	1350 (≈ 512 µg/mL)	670 (≈ 254 µg/mL)	340 (≈ 129 µg/mL)	340 (≈ 129 µg/mL)	36.7	340 (≈ 129 µg/mL)	670 (≈ 254 µg/mL)	340 (≈ 129 µg/mL)	340 (≈ 129 µg/mL)	
Cc1ccc(NC(=O)[C@H](O)[C@@H](O)C(=O)N2CCC3(CCNC3=O)CC2)cc1	340 (≈ 128 µg/mL)	340 (≈ 128 µg/mL)	680 (≈ 255 µg/mL)	170 (≈ 63.8 µg/mL)	170 (≈ 63.8 µg/mL)	680 (≈ 255 µg/mL)	680 (≈ 255 µg/mL)	48.7	340 (≈ 128 µg/mL)	340 (≈ 128 µg/mL)	170 (≈ 63.8 µg/mL)	680 (≈ 255 µg/mL)	
O=C(Nc1ccccc1F)[C@H](O)[C@@H](O)C(=O)N1CCC2(CCNC2=O)CC1	340 (≈ 129 µg/mL)	670 (≈ 254 µg/mL)	670 (≈ 254 µg/mL)	1350 (≈ 512 µg/mL)	340 (≈ 129 µg/mL)	670 (≈ 254 µg/mL)	670 (≈ 254 µg/mL)	23.1	340 (≈ 129 µg/mL)	670 (≈ 254 µg/mL)	340 (≈ 129 µg/mL)	670 (≈ 254 µg/mL)	
